Measurements reported in US9867833B2, “Serine/threonine kinase inhibitors” (GENENTECH, INC., priority 2013, dated 2018).

biological target: human ERK-2 (Mitogen Activated Kinase 1) (Homo sapiens (Human), UniProt P28482); assay: ERK-2 Enzymatic Assay; type: biochemical; conditions: human ERK-2 enzyme 5 nM, 25 μM ATP, S/T17 peptide substrate; isomer = configuration of CR2R3
Protocol: Compounds were tested in an enzymatic assay using human ERK-2 (Mitogen Activated Kinase 1), recombinantly expressed as an n-terminal 6-His fusion protein in E. coli and corresponding to aa 8-360. […] Test compounds were diluted in DMSO in 3-fold serial dilutions at 100× final concentrations. […] The data collected from each well was fit to a straight line, and the resulting rates were used to calculate percent of control. Percent of control was plotted against compound concentration, and IC50 values were determined using a four-parameter fit.

human ERK-2 (Mitogen Activated Kinase 1), sequence (P28482 8-360): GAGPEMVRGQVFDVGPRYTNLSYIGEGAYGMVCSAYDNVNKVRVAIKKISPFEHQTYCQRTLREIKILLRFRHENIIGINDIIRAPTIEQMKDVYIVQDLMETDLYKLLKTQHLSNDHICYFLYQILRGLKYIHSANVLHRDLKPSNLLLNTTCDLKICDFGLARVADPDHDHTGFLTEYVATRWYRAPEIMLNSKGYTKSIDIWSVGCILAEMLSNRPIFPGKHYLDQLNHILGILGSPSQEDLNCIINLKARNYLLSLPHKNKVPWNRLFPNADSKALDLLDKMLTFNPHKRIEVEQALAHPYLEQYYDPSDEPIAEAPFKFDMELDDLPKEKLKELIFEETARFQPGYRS

Compound	IC50
Cn1nccc1Nc1cc(-c2cc3n4c(nnc4c2)[C@@H](Cn2cc(Cl)cn2)CCO3)ccn1 [(R) I-47, 4-(9-((4-chloro-1H-pyrazol-1-yl)methyl)-8,9-dihydro-7H-6-oxa-1,2,2a^1-triazabenzo[cd]azulen-4-yl)-N-(1-methyl-1H-pyrazol-5-yl)pyridin-2-amine]	< 0.02 nM
CN1C(=O)N(Cc2ccc(Cl)cc2)c2nnc3cc(-c4ccnc(Nc5ccnn5C)n4)cc1n23 [Compound I-98, 3-(4-chlorobenzyl)-5-methyl-7-(2-((1-methyl-1H-pyrazol-5-yl)amino)pyrimidin-4-yl)-3H-1,2,2a^1,3,5-pentaazaacenaphthylen-4(5H)-one]	0.273 nM
CC(C)C[C@H]1CNc2cc(-c3ccnc(Nc4ccnn4C)n3)cc3nnc1n23 [(S) I-10, 4-(3-isobutyl-4,5-dihydro-3H-1,2,2a^1,5-tetraazaacenaphthylen-7-yl)-N-(1-methyl-1H-pyrazol-5-yl)pyrimidin-2-amine]	< 0.02 nM
COc1ccc(C[C@H]2CN(C)c3cc(-c4ccnc(Nc5ccnn5C)c4)cc4nnc2n34)cc1 [(S) I-18, 4-(3-(4-methoxybenzyl)-5-methyl-4,5-dihydro-3H-1,2,2a^1,5-tetraazaacenaphthylen-7-yl)-N-(1-methyl-1H-pyrazol-5-yl)pyridin-2-amine]	55.8 nM
CN1C(=O)C[C@@H](Cc2ccc(Cl)cc2)c2nnc3cc(-c4ccnc(Nc5ccnn5C)n4)cc1n23 [(R) I-22, 9-(4-chlorobenzyl)-6-methyl-4-(2-((1-methyl-1H-pyrazol-5-yl)amino)pyrimidin-4-yl)-8,9-dihydro-1,2,2a^1,6-tetraazabenzo[cd]azulen-7(6H)-one]	88.2 nM
CCCC1COc2cc(-c3ccnc(Nc4ccnn4C)n3)cc3nnc1n23 (single isomer, unassigned) [(R) I-101, N-(1-methyl-1H-pyrazol-5-yl)-4-(3-propyl-3,4-dihydro-5-oxa-1,2,2a^1-triazaacenaphthylen-7-yl)pyrimidin-2-amine]	0.038 nM
COc1ncccc1C[C@@H]1CN(C)c2cc(-c3ccnc(Nc4ccnn4C)n3)cc3nnc1n23 [(R) I-43, 4-(3-((2-methoxypyridin-3-yl)methyl)-5-methyl-4,5-dihydro-3H-1,2,2a^1,5-tetraazaacenaphthylen-7-yl)-N-(1-methyl-1H-pyrazol-5-yl)pyrimidin-2-amine]	120 nM
CC(C)C[C@H]1COc2cc(-c3ccnc(Nc4ccnn4C)n3)cc3nnc1n23 [(R) I-45, 4-(3-isobutyl-3,4-dihydro-5-oxa-1,2,2a^1-triazaacenaphthylen-7-yl)-N-(1-methyl-1H-pyrazol-5-yl)pyrimidin-2-amine]	< 0.02 nM
Cn1nccc1Nc1cc(-c2cc3n4c(nnc4c2)[C@H](Cc2ccccc2)CO3)ccn1 [(S) I-38, 4-(3-benzyl-3,4-dihydro-5-oxa-1,2,2a^1-triazaacenaphthylen-7-yl)-N-(1-methyl-1H-pyrazol-5-yl)pyridin-2-amine]	4.34 nM
Cn1nccc1Nc1nccc(-c2cc3n4c(nnc4c2)[C@H](c2ccccc2)CN3)n1 [(R) I-1, N-(1-methyl-1H-pyrazol-5-yl)-4-(3-phenyl-4,5-dihydro-3H-1,2,2a^1,5-tetraazaacenaphthylen-7-yl)pyrimidin-2-amine]	179 nM
Cc1cc(C[C@@H]2CCOc3cc(-c4ccnc(Nc5ccnn5C)n4)cc4nnc2n34)on1 [(S) I-93, N-(1-methyl-1H-pyrazol-5-yl)-4-(9-((3-methylisoxazol-5-yl)methyl)-8,9-dihydro-7H-6-oxa-1,2,2a^1-triazabenzo[cd]azulen-4-yl)pyrimidin-2-amine]	18.2 nM
CCC[C@H]1CC(=O)N(C)c2cc(-c3ccnc(Nc4ccnn4C)n3)cc3nnc1n23 [(S) I-64, 6-methyl-4-(2-((1-methyl-1H-pyrazol-5-yl)amino)pyrimidin-4-yl)-9-propyl-8,9-dihydro-1,2,2a^1,6-tetraazabenzo[cd]azulen-7(6H)-one]	0.149 nM
CC(C)C[C@H]1NC(=O)N(C)c2cc(-c3ccnc(Nc4ccnn4C)c3)cc3nnc1n23 [Compound I-25, (R)-9-isobutyl-6-methyl-4-(2-((1-methyl-1H-pyrazol-5-yl)amino)pyridin-4-yl)-8,9-dihydro-1,2,2a^1,6,8-pentaazabenzo[cd]azulen-7(6H)-one]	4.28 nM
COc1ccc(C[C@H]2CC(=O)N(C)c3cc(-c4ccnc(Nc5ccnn5C)c4)cc4nnc2n34)c(F)c1 [(S) I-74, 9-(2-fluoro-4-methoxybenzyl)-6-methyl-4-(2-((1-methyl-1H-pyrazol-5-yl)amino)pyridin-4-yl)-8,9-dihydro-1,2,2a^1,6-tetraazabenzo[cd]azulen-7(6H)-one]	2.85 nM
Cn1nccc1Nc1cc(-c2cc3n4c(nnc4c2)[C@H](Cc2ccc(Cl)cc2)CO3)ccn1 [(S) I-48, 4-(3-(4-chlorobenzyl)-3,4-dihydro-5-oxa-1,2,2a^1-triazaacenaphthylen-7-yl)-N-(1-methyl-1H-pyrazol-5-yl)pyridin-2-amine]	12.3 nM
CN1C[C@@H](Cc2ccccc2)c2nnc3cc(-c4ccnc(Nc5ccnn5C)n4)cc1n23 [(R) I-9, 4-(3-benzyl-5-methyl-4,5-dihydro-3H-1,2,2a^1,5-tetraazaacenaphthylen-7-yl)-N-(1-methyl-1H-pyrazol-5-yl)pyrimidin-2-amine]	5.04 nM
COc1ccc(C[C@@H]2CNc3cc(-c4ccnc(Nc5ccnn5C)n4)cc4nnc2n34)cc1F [(R) I-12, 4-(3-(3-fluoro-4-methoxybenzyl)-4,5-dihydro-3H-1,2,2a^1,5-tetraazaacenaphthylen-7-yl)-N-(1-methyl-1H-pyrazol-5-yl)pyrimidin-2-amine]	0.311 nM
Cn1nccc1Nc1cc(-c2cc3n4c(nnc4c2)[C@@H](Cc2ccc(Cl)cc2)CO3)ccn1 [(R) I-48, 4-(3-(4-chlorobenzyl)-3,4-dihydro-5-oxa-1,2,2a^1-triazaacenaphthylen-7-yl)-N-(1-methyl-1H-pyrazol-5-yl)pyridin-2-amine]	< 0.02 nM
Cn1nccc1Nc1cc(-c2cc3n4c(nnc4c2)[C@@H](Cc2ccccc2)CN3)ccn1 [(S) I-7, 4-(3-benzyl-4,5-dihydro-3H-1,2,2a^1,5-tetraazaacenaphthylen-7-yl)-N-(1-methyl-1H-pyrazol-5-yl)pyridin-2-amine]	< 0.02 nM
Cn1nccc1Nc1nccc(-c2cc3n4c(nnc4c2)[C@H](Cc2ccc(Cl)cc2)CCO3)n1 [(R) I-36, 4-(9-(4-chlorobenzyl)-8,9-dihydro-7H-6-oxa-1,2,2a^1-triazabenzo[cd]azulen-4-yl)-N-(1-methyl-1H-pyrazol-5-yl)pyrimidin-2-amine]	0.69 nM
CN1C[C@@H](Cc2ccc(F)cc2)c2nnc3cc(-c4ccnc(Nc5ccnn5C)n4)cc1n23 [(R) I-31, 4-(3-(4-fluorobenzyl)-5-methyl-4,5-dihydro-3H-1,2,2a^1,5-tetraazaacenaphthylen-7-yl)-N-(1-methyl-1H-pyrazol-5-yl)pyrimidin-2-amine]	1.35 nM
Clc1cnn(C[C@H]2CCOc3cc(-c4ccnc(NC5CCOCC5)n4)cc4nnc2n34)c1 [(R) I-110, 4-(9-((4-chloro-1H-pyrazol-1-yl)methyl)-8,9-dihydro-7H-6-oxa-1,2,2a^1-triazabenzo[cd]azulen-4-yl)-N-(tetrahydro-2H-pyran-4-yl)pyrimidin-2-amine]	< 0.02 nM
Cn1nccc1Nc1nccc(-c2cc3n4c(nnc4c2)[C@H](Cc2ccccc2)CN3)n1 [(R) I-2, (R)-4-(3-benzyl-4,5-dihydro-3H-1,2,2a^1,5-tetraazaacenaphthylen-7-yl)-N-(1-methyl-1H-pyrazol-5-yl)pyrimidin-2-amine]	0.38 nM
COc1ccc(C[C@H]2CC(=O)N(C)c3cc(-c4ccnc(Nc5ccnn5C)n4)cc4nnc2n34)c(F)c1 [(S) I-85, 9-(2-fluoro-4-methoxybenzyl)-6-methyl-4-(2-((1-methyl-1H-pyrazol-5-yl)amino)pyrimidin-4-yl)-8,9-dihydro-1,2,2a^1,6-tetraazabenzo[cd]azulen-7(6H)-one]	25.9 nM
Cn1nccc1Nc1nccc(-c2cc3n4c(nnc4c2)[C@@H](Cn2cc(Cl)cn2)CCO3)n1 [(R) I-42, (R)-4-(9-((4-chloro-1H-pyrazol-1-yl)methyl)-8,9-dihydro-7H-6-oxa-1,2,2a^1-triazabenzo[cd]azulen-4-yl)-N-(1-methyl-1H-pyrazol-5-yl)pyrimidin-2-amine]	0.079 nM
Cn1nccc1Nc1cc(-c2cc3n4c(nnc4c2)[C@@H](Oc2cncc(Cl)c2)CCO3)ccn1 [(S) I-78, 4-(9-((5-chloropyridin-3-yl)oxy)-8,9-dihydro-7H-6-oxa-1,2,2a^1-triazabenzo[cd]azulen-4-yl)-N-(1-methyl-1H-pyrazol-5-yl)pyridin-2-amine]	< 0.02 nM
CN1C(=O)C[C@H](Cc2ccc(Cl)cc2)c2nnc3cc(-c4ccnc(Nc5ccnn5C)n4)cc1n23 [(S) I-22, 9-(4-chlorobenzyl)-6-methyl-4-(2-((1-methyl-1H-pyrazol-5-yl)amino)pyrimidin-4-yl)-8,9-dihydro-1,2,2a^1,6-tetraazabenzo[cd]azulen-7(6H)-one]	< 0.02 nM
Cn1nccc1Nc1nccc(-c2cc3n4c(nnc4c2)C(C2CC2)CO3)n1 (stereo not drawn) [Compound I-95, 4-(3-cyclopropyl-3,4-dihydro-5-oxa-1,2,2a^1-triazaacenaphthylen-7-yl)-N-(1-methyl-1H-pyrazol-5-yl)pyrimidin-2-amine]	0.751 nM
Cn1nccc1Nc1cc(-c2cc3n4c(nnc4c2)C(Cc2ccc(F)c(Cl)c2)CO3)ccn1 (stereo not drawn) [Compound I-83, 4-(3-(3-Chloro-4-fluorobenzyl)-3,4-dihydro-5-oxa-1,2,2a^1-triazaacenaphthylen-7-yl)-N-(1-methyl-1H-pyrazol-5-yl)pyridin-2-amine]	0.111 nM
CC(C)C[C@H]1CCOc2cc(-c3ccnc(Nc4ccnn4C)n3)cc3nnc1n23 [(S) I-107, 4-(9-isobutyl-8,9-dihydro-7H-6-oxa-1,2,2a^1-triazabenzo[cd]azulen-4-yl)-N-(1-methyl-1H-pyrazol-5-yl)pyrimidin-2-amine]	0.023 nM
